From US4268664A, “Process for the preparation of 1-N-isoseryl- or 1-N-(L-4-amino-2-hydroxybutyryl)-3',4'-dideoxykanamycin B and intermediates thereof” (Zaidan Hojin Biseibutsu Kagaku Kenkyu Kai, priority 1978, dated 1981)
In brackets after ≈: the same amount, converted by molar mass. Read-outs that look alike come from different tables or passages of the source.

Key:
[1] = tested on: Sta. aureus Rosenbach FDA 209-P JC-1; assay: Antibacterial activity (MIC), serial dilution method; format: cell-based; settings: Staphylococcus aureus, FDA209; nutrient agar, 37° C., 20 hours
[2] = tested on: Sta. aureus Smith S-424; assay: as above; format: cell-based; settings: Staphylococcus aureus, SMITHS424; nutrient agar, 37° C., 20 hours
[3] = tested on: Sta. aureus No. 26; assay: as above; format: cell-based; settings: Staphylococcus aureus, nutrient agar, 37° C., 20 hours
[4] = tested on: Sta. aureus ApO-1; assay: as above; format: cell-based; settings: Staphylococcus aureus, APO1; nutrient agar, 37° C., 20 hours
[5] = tested on: Sta. aureus N-0089; assay: as above; format: cell-based; settings: Staphylococcus aureus, N0089; nutrient agar, 37° C., 20 hours
[6] = tested on: Sta. epidermidis ATCC 14990; assay: as above; format: cell-based; settings: Staphylococcus epidermidis, ATCC14990; nutrient agar, 37° C., 20 hours
[7] = tested on: Sta. epidermidis 109; assay: as above; format: cell-based; settings: Staphylococcus epidermidis, nutrient agar, 37° C., 20 hours
[8] = tested on: Str. faecalis ATCC 8043; assay: as above; format: cell-based; settings: Enterococcus faecalis, ATCC8043; nutrient agar, 37° C., 20 hours
[9] = tested on: B. subtilis ATCC 6633; assay: as above; format: cell-based; settings: Bacillus subtilis, ATCC6633; nutrient agar, 37° C., 20 hours
[10] = tested on: B. anthracis No. 119; assay: microbe, parasite or virus in culture; format: cell-based; settings: Bacillus anthracis, NO.119, 20 h
[11] = tested on: E. coli (M) Cast. & Chalm.NIHJ JC-2; assay: Antibacterial activity (MIC), serial dilution method; format: cell-based; settings: Escherichia coli, NIHJJC2; nutrient agar, 37° C., 20 hours; read-out: MIC
[12] = tested on: E. coli No. 29; assay: as above; format: cell-based; settings: Escherichia coli, nutrient agar, 37° C., 20 hours
[13] = tested on: E. coli W 677(A-20684); assay: as above; format: cell-based; settings: Escherichia coli; nutrient agar, 37° C., 20 hours
Experimental: (§1) Antimicrobial spectra of 1-N-(L-isoseryl)- and 1-N-(L-4-amino-2-hydroxybutyryl)-3',4'-dideoxy-3',4'-didehydrokanamycin B (1-AHP-eno-DKB and 1-AHB-eno-DKB) are shown in the following table together with that of 1-N-(L-4-amino-2-hydroxybutyryl)-3',4'-dideoxykanamycin B (1-AHB-DKB).
(§2) The minimum inhibitory concentrations (mcg/ml) of the compounds tested against various microorganisms were determined according to a serial dilution method using nutrient agar medium at 37° C., the estimation being effected after 20 hours-incubation.

[14] = tested on: Sal. species D-0001; assay: as above; format: cell-based; settings: nutrient agar, 37° C., 20 hours
Experimental: as §1, §2

[15] = tested on: Sal. species D-0006; assay: as above; format: cell-based; settings: nutrient agar, 37° C., 20 hours
Experimental: as §1, §2

[16] = tested on: E. coli JR 66/W 677(A-20683); assay: as above; format: cell-based; settings: Escherichia coli; nutrient agar, 37° C., 20 hours; read-out: MIC
[17] = tested on: E. coli A-0001; assay: as above; format: cell-based; settings: Escherichia coli, A0001; nutrient agar, 37° C., 20 hours
[18] = tested on: E. coli A-0003; assay: as above; format: cell-based; settings: Escherichia coli, A0003; nutrient agar, 37° C., 20 hours
[19] = tested on: Sal. typhi 0-901-W; assay: as above; format: cell-based; settings: Salmonella enterica, 20 h
[20] = tested on: Sal. typhimurium LT-2; assay: as above; format: cell-based; settings: Salmonella enterica, nutrient agar, 37° C., 20 hours, read-out: MIC
[21] = tested on: Sal. enteritidis No. 11(T-okai); assay: as above; format: cell-based; settings: Salmonella enterica, nutrient agar, 37° C., 20 hours, read-out: MIC
[22] = tested on: Shigella dysenteriae Shigae; assay: microbe, parasite or virus in culture; format: cell-based; settings: 20 h
[23] = tested on: Kleb. pneumoniae; assay: Antibacterial activity (MIC), serial dilution method; format: cell-based; settings: Klebsiella pneumoniae
[24] = tested on: Kleb. pneumoniae 22# 3038 (A-20680); assay: as above; format: cell-based; settings: Klebsiella pneumoniae
[25] = tested on: Pro. morganii K-ono; assay: as above; format: cell-based; settings: Morganella morganii; nutrient agar, 37° C., 20 hours
[26] = tested on: Pro. vulgaris OX19; assay: as above; format: cell-based; settings: Proteus vulgaris, nutrient agar, 37° C., 20 hours
[27] = tested on: Pro. vulgaris J-0001; assay: as above; format: cell-based; settings: Proteus vulgaris, J0001; nutrient agar, 37° C., 20 hours; read-out: MIC
[28] = tested on: Pro. rettgelli J-0026; assay: as above; format: cell-based; settings: nutrient agar, 37° C., 20 hours; read-out: MIC
[29] = tested on: Pro. mirabilis J-0010; assay: as above; format: cell-based; settings: Proteus mirabilis, J0010; nutrient agar, 37° C., 20 hours; read-out: MIC
[30] = tested on: Serra. marcescens No. 1; assay: as above; format: cell-based; settings: Serratia marcescens, nutrient agar, 37° C., 20 hours
[31] = tested on: Serra. marcescens No. 2; assay: as above; format: cell-based; settings: Serratia marcescens, nutrient agar, 37° C., 20 hours
[32] = tested on: Serra. marcescens I-0043; assay: as above; format: cell-based; settings: Serratia marcescens
[33] = tested on: Ps. aeruginosa IAM-1007; assay: as above; format: cell-based; settings: Pseudomonas aeruginosa, IAM1007; nutrient agar, 37° C., 20 hours; read-out: MIC
[34] = tested on: Ps. aeruginosa NC-5; assay: as above; format: cell-based; settings: Pseudomonas aeruginosa, NC5; nutrient agar, 37° C., 20 hours; read-out: MIC
[35] = tested on: Ps. aeruginosa E-2; assay: as above; format: cell-based; settings: Pseudomonas aeruginosa, E2; nutrient agar, 37° C., 20 hours; read-out: MIC
[36] = tested on: Ps. aeruginosa IID 1210 (IFO 3455); assay: as above; format: cell-based; settings: Pseudomonas aeruginosa; nutrient agar, 37° C., 20 hours; read-out: MIC
[37] = tested on: Ps. aeruginosa M-0002; assay: as above; format: cell-based; settings: Pseudomonas aeruginosa
[38] = tested on: Ps. aeruginosa M-0032; assay: as above; format: cell-based; settings: Pseudomonas aeruginosa, M0032; nutrient agar, 37° C., 20 hours; read-out: MIC
[39] = tested on: Ps. aeruginosa M-0148; assay: as above; format: cell-based; settings: Pseudomonas aeruginosa
[40] = tested on: various microorganisms; assay: antimicrobial activity (in words); format: cell-based
Experimental: as §2

[41] = tested on: Sal. species D-0029; assay: Antibacterial activity (MIC), serial dilution method; format: cell-based; settings: nutrient agar, 37° C., 20 hours
Experimental: as §1, §2

[42] = tested on: drug-resistant microbial strains including Pseudomonas aeruginosa; settings: cited from earlier work
[43] = nutrient agar, 37° C., 20 hours, read-out: MIC

## NCCC(O)C(=O)NC1CC(N)C(OC2OC(CN)C=CC2N)C(O)C1OC1OC(CO)C(O)C(N)C1O [1-AHB-eno-DKB, 1-N-(L-4-amino-2-hydroxybutyryl)-3',4'-dideoxy-3',4'-didehydrokanamycin B]
[1]
  MIC: 0.1 µg/mL (≈ 0.182 µM)
[2]
  MIC: 0.2 µg/mL (≈ 0.363 µM)
[3]
  MIC: 0.78 µg/mL (≈ 1.42 µM)
[4]
  MIC: 0.39 µg/mL (≈ 0.708 µM)
[5]
  MIC: 0.2 µg/mL (≈ 0.363 µM)
[6]
  MIC: 0.1 µg/mL (≈ 0.182 µM)
[7]
  MIC: 0.2 µg/mL (≈ 0.363 µM)
[8]
  MIC: 50 µg/mL (≈ 90.8 µM)
[9]
  MIC: 0.2 µg/mL (≈ 0.363 µM)
[10]
  MIC: 0.1 µg/mL (≈ 0.182 µM)
[11]
  MIC: 3.13 µg/mL (≈ 5.68 µM)
[12]
  MIC: 3.13 µg/mL (≈ 5.68 µM)
[13]
  MIC: 0.78 µg/mL (≈ 1.42 µM)
[14]
  MIC: 3.13 µg/mL (≈ 5.68 µM)
[15]
  MIC: 1.56 µg/mL (≈ 2.83 µM)
[16]
  MIC: 3.13 µg/mL (≈ 5.68 µM)
[17]
  MIC: 3.13 µg/mL (≈ 5.68 µM)
[18]
  MIC: 3.13 µg/mL (≈ 5.68 µM)
[19]
  MIC: 0.78 µg/mL (≈ 1.42 µM)
[20]
  MIC: 1.56 µg/mL (≈ 2.83 µM)
[21]
  MIC: 1.56 µg/mL (≈ 2.83 µM)
[22]
  MIC: 0.78 µg/mL (≈ 1.42 µM)
[23]; [43]
  MIC: 1.56 µg/mL (≈ 2.83 µM)
[24]; [43]
  MIC: 1.56 µg/mL (≈ 2.83 µM)
[25]
  MIC: 1.56 µg/mL (≈ 2.83 µM)
[26]
  MIC: 3.13 µg/mL (≈ 5.68 µM)
[27]
  MIC: 1.56 µg/mL (≈ 2.83 µM)
[28]
  MIC: 6.25 µg/mL (≈ 11.4 µM)
[29]
  MIC: 1.56 µg/mL (≈ 2.83 µM)
[30]
  MIC: 6.25 µg/mL (≈ 11.4 µM)
[31]
  MIC: 6.25 µg/mL (≈ 11.4 µM)
[32]; I0043, nutrient agar, 37° C., 20 hours, read-out: MIC
  MIC: 1.56 µg/mL (≈ 2.83 µM)
[33]
  MIC: 1.56 µg/mL (≈ 2.83 µM)
[34]
  MIC: 6.25 µg/mL (≈ 11.4 µM)
[35]
  MIC: 3.13 µg/mL (≈ 5.68 µM)
[36]
  MIC: 6.25 µg/mL (≈ 11.4 µM)
[37]; M0002, nutrient agar, 37° C., 20 hours, read-out: MIC
  MIC: 3.13 µg/mL (≈ 5.68 µM)
[38]
  MIC: 12.5 µg/mL (≈ 22.7 µM)
[39]; M0148, nutrient agar, 37° C., 20 hours, read-out: MIC
  MIC: 3.13 µg/mL (≈ 5.68 µM)
[40]
  antimicrobial activity: high antimicrobial activity

## NCC1C=CC(N)C(OC2C(N)CC(NC(=O)C(O)CN)C(OC3OC(CO)C(O)C(N)C3O)C2O)O1 [1-AHP-eno-DKB, 1-N-(L-isoseryl)-3',4'-dideoxy-3',4'-didehydrokanamycin B]
[1]
  MIC: 0.1 µg/mL (≈ 0.186 µM)
[2]
  MIC: 0.39 µg/mL (≈ 0.727 µM)
[3]
  MIC: 0.39 µg/mL (≈ 0.727 µM)
[4]
  MIC: 0.78 µg/mL (≈ 1.45 µM)
[5]
  MIC: 0.39 µg/mL (≈ 0.727 µM)
[6]
  MIC: 0.2 µg/mL (≈ 0.373 µM)
[7]
  MIC: 0.2 µg/mL (≈ 0.373 µM)
[8]
  MIC: 50 µg/mL (≈ 93.2 µM)
[9]
  MIC: 0.2 µg/mL (≈ 0.373 µM)
[10]
  MIC: 0.2 µg/mL (≈ 0.373 µM)
[11]
  MIC: 3.13 µg/mL (≈ 5.83 µM)
[12]
  MIC: 6.25 µg/mL (≈ 11.6 µM)
[13]
  MIC: 0.78 µg/mL (≈ 1.45 µM)
[14]
  MIC: 6.25 µg/mL (≈ 11.6 µM)
[15]
  MIC: 6.25 µg/mL (≈ 11.6 µM)
[41]
  MIC: 6.25 µg/mL (≈ 11.6 µM)
[16]
  MIC: 3.13 µg/mL (≈ 5.83 µM)
[17]
  MIC: 6.25 µg/mL (≈ 11.6 µM)
[18]
  MIC: 6.25 µg/mL (≈ 11.6 µM)
[19]
  MIC: 1.56 µg/mL (≈ 2.91 µM)
[20]
  MIC: 3.13 µg/mL (≈ 5.83 µM)
[21]
  MIC: 3.13 µg/mL (≈ 5.83 µM)
[22]
  MIC: 1.56 µg/mL (≈ 2.91 µM)
[23]; 20 h
  MIC: 1.56 µg/mL (≈ 2.91 µM)
[24]; 20 h
  MIC: 1.56 µg/mL (≈ 2.91 µM)
[25]
  MIC: 3.13 µg/mL (≈ 5.83 µM)
[26]
  MIC: 3.13 µg/mL (≈ 5.83 µM)
[27]
  MIC: 3.13 µg/mL (≈ 5.83 µM)
[28]
  MIC: 25 µg/mL (≈ 46.6 µM)
[29]
  MIC: 3.13 µg/mL (≈ 5.83 µM)
[30]
  MIC: 3.13 µg/mL (≈ 5.83 µM)
[31]
  MIC: 3.13 µg/mL (≈ 5.83 µM)
[32]; I0043, 20 h
  MIC: 1.56 µg/mL (≈ 2.91 µM)
[33]
  MIC: 0.78 µg/mL (≈ 1.45 µM)
[34]
  MIC: 3.13 µg/mL (≈ 5.83 µM)
[35]
  MIC: 3.13 µg/mL (≈ 5.83 µM)
[36]
  MIC: 3.13 µg/mL (≈ 5.83 µM)
[37]; M0002, 20 h
  MIC: 1.56 µg/mL (≈ 2.91 µM)
[38]
  MIC: 6.25 µg/mL (≈ 11.6 µM)
[39]; M0148, 20 h
  MIC: 1.56 µg/mL (≈ 2.91 µM)

## NCC1C=CC(N)C(OC2C(N)CC(NC(=O)C(O)CN)C(OC3OC(CO)C(O)C(N)C3O)C2O)O1 (stereo not shown) [1-N-isoseryl-3',4'-dideoxy-3',4'-didehydrokanamycin B]
[40]
  antimicrobial activity: high antimicrobial activity

## NCC1CCC(N)C(OC2C(N)CC(NC(=O)C(O)CN)C(OC3OC(CO)C(O)C(N)C3O)C2O)O1 (stereo not shown) [1-N-isoseryl-3',4'-dideoxykanamycin B]
[42]
  activity against a wide variety of drug-resistant microbial strains: high activity
